Laboratory results: patent US5620958A, “Bradykinin antagonists” (Coretech, Inc., priority 1994, dated 1997)
Square brackets hold non-standard residues; d marks the D form. Peptide text beside a SMILES is read from it. Oic = O=C(O)[C@@H]1C[C@@H]2CCCC[C@@H]2N1; Hyp = O=C(O)[C@@H]1C[C@@H](O)CN1; dTic = O=C(O)[C@H]1Cc2ccccc2CN1; 2Thi = N[C@@H](Cc1cccs1)C(=O)O

Tests used:
BK2 receptor [1] = target: T1, BK2 receptor (Cavia porcellus, UniProt O70526); test: guinea-pig ileum (GPI) in vitro, antagonism of BK; assay type: cell-based; conditions: Table B; read-out: pA2 GUINEA PIG ILEUM (converted)
T1 construct: tested for activity on guinea pig ileum in vitro on the standard tissue bath/strain gauge system; from tissue; host or cells: guinea pig ileum
T1 sequence (O70526 1-372): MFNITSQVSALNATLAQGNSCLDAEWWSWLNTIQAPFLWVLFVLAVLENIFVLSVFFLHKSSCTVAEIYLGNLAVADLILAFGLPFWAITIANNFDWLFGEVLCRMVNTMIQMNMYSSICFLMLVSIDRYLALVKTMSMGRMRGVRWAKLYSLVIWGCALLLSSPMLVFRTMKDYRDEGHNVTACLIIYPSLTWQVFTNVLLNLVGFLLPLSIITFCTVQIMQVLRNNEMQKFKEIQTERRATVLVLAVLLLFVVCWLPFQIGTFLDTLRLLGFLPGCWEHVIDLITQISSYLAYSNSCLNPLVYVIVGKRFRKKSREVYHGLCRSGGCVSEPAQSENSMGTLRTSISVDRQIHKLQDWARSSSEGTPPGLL
Description: Thus, in vitro studies were performed on standard assay systems, namely, guinea-pig ileum (GPI), rat uterus (RU) and rabbit jugular vein (RJV). […] The potency of each compound was assessed as a pA2 value according to the method of Arunlakshana & Schild, Br. J. Pharmacol. Chemother., 1.4:48-58 (1959). The pA2 can be defined as the negative logarithm of the molar concentration of the antagonist in the presence of which the potency of the agonist is reduced two-fold, i.e., twice the amount of agonist is required to produce a given response in the presence of, than in the absence of, the antagonist. A high potency of antagonism is indicated by a high pA2 value, i.e., a low concentration of antagonist is effective.
The percentage recovery (% Rec) was also determined for compounds with respect to each assay.
The various compounds identified in Table B below were prepared following the procedure of Example 1 with the Cys moiety introduced into the parent CP-0088 at the position indicated followed by reaction between the sulfhydryl group of the Cys residue and BMH to provide dimers as indicated. The Cys-modified monomers and the resultant dimers were tested for activity on guinea pig ileum in vitro on the standard tissue bath/strain gauge system as before.

BK2 receptor [2] = target: T2, BK2 receptor (Rattus norvegicus, UniProt P25023); test: cell-based
T2 sequence (P25023 1-396): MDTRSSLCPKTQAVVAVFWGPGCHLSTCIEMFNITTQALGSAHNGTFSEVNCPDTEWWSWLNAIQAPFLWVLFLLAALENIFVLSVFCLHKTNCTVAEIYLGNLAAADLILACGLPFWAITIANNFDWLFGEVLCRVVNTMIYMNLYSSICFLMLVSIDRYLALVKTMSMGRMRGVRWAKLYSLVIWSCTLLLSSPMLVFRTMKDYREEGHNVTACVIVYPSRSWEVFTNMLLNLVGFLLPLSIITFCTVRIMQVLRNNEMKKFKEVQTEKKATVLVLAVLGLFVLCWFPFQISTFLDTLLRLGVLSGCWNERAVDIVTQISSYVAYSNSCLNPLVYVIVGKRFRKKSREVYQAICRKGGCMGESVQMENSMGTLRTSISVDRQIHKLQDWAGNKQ

BK1 receptor = target: T3, BK1 receptor (Oryctolagus cuniculus, UniProt P48748); test: blood pressure response to BK1 agonist in LPS-pretreated rabbits; assay type: in vivo, rabbit; conditions: rabbits given LPS (10 μg) 20 hours before
T3 construct: when administered to an intact animal; from tissue; host or cells: whole rabbit (systemic arterial blood pressure), LPS-pretreated
T3 sequence (P48748 1-352): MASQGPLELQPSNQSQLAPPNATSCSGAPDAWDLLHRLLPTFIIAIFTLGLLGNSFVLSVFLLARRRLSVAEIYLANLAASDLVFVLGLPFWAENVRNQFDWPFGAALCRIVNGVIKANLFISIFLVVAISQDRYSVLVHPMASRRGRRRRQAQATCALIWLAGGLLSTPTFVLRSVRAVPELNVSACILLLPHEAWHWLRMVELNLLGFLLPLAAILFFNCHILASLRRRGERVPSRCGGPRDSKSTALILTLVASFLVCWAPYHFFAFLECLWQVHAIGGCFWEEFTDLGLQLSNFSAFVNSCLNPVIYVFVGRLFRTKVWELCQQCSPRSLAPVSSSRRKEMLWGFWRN

BK2 receptor [3] = target: T4, BK2 receptor (Oryctolagus cuniculus, UniProt Q28642); test: blood pressure response to BK2 agonist in LPS-pretreated rabbits; assay type: in vivo, rabbit; parameters: key to OBSERVED ANTAGONIST ACTIVITY BK2: +: indicates complete blockade of the blood pressure response to the appropriate agonist; +/-: indicates partial blockade; -: indicates no observable effect at the dose indicated; conditions: rabbits given LPS (10 μg) 20 hours before
T4 construct: when administered to an intact animal; from tissue; host or cells: whole rabbit (systemic arterial blood pressure), LPS-pretreated
T4 sequence (Q28642 1-367): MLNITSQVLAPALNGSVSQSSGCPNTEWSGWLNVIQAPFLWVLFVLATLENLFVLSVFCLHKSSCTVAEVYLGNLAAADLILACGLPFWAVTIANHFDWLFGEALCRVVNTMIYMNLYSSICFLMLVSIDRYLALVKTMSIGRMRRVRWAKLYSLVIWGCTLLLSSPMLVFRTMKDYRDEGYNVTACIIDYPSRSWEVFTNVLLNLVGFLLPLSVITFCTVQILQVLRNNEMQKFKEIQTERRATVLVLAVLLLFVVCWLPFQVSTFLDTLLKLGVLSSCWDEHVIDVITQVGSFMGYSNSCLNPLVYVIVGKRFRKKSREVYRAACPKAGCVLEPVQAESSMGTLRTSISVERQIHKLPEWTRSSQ

SMILES	Kb (BK2 receptor [1])	Kb (BK2 receptor [2])	OBSERVED ANTAGONIST ACTIVITY BK1 (BK1 receptor; 1 μg kg^-1 min^-1)	OBSERVED ANTAGONIST ACTIVITY BK1 (BK1 receptor; 3 μg kg^-1 min^-1)	OBSERVED ANTAGONIST ACTIVITY BK1 (BK1 receptor; 10 μg kg^-1 min^-1)	OBSERVED ANTAGONIST ACTIVITY BK2 (BK2 receptor [3]; 1 μg kg^-1 min^-1)	OBSERVED ANTAGONIST ACTIVITY BK2 (BK2 receptor [3]; 3 μg kg^-1 min^-1)	OBSERVED ANTAGONIST ACTIVITY BK2 (BK2 receptor [3]; 10 μg kg^-1 min^-1)
CC(C)C[C@H](NC(=O)[C@@H](Cc1ccccc1)NC(=O)[C@H](CO)NC(=O)[C@H](Cc1ccccc1)NC(=O)CNC(=O)[C@@H]1C[C@@H](O)CN1C(=O)[C@H](CS)NC(=O)[C@H](CCCNC(=N)N)NC(=O)[C@H](N)CCCNC(=N)N)C(=O)N[C@@H](CCCNC(=N)N)C(=O)O [CP-0142] (HELM PEPTIDE1{[dR].R.C.[Hyp].G.F.S.[dF].L.R}$$$$V2.0)	> 1000 nM							
CC(C)C[C@H](NC(=O)[C@@H](Cc1ccccc1)NC(=O)[C@H](CO)NC(=O)[C@H](Cc1ccccc1)NC(=O)CNC(=O)[C@H](CS)NC(=O)[C@@H]1CCCN1C(=O)[C@H](CCCNC(=N)N)NC(=O)[C@H](N)CCCNC(=N)N)C(=O)N[C@@H](CCCNC(=N)N)C(=O)O [CP-0143] (HELM PEPTIDE1{[dR].R.P.C.G.F.S.[dF].L.R}$$$$V2.0)	200 nM							
CC(C)C[C@H](NC(=O)[C@@H](Cc1ccccc1)NC(=O)[C@H](CSC1CC(=O)N(CCCCCCCCCN2C(=O)CC(SC[C@H](NC(=O)[C@H](Cc3ccccc3)NC(=O)CNC(=O)[C@@H]3C[C@@H](O)CN3C(=O)[C@@H]3CCCN3C(=O)[C@H](CCCNC(=N)N)NC(=O)[C@H](N)CCCNC(=N)N)C(=O)N[C@H](Cc3ccccc3)C(=O)N[C@@H](CC(C)C)C(=O)N[C@@H](CCCNC(=N)N)C(=O)O)C2=O)C1=O)NC(=O)[C@H](Cc1ccccc1)NC(=O)CNC(=O)[C@@H]1C[C@@H](O)CN1C(=O)[C@@H]1CCCN1C(=O)[C@H](CCCNC(=N)N)NC(=O)[C@H](N)CCCNC(=N)N)C(=O)N[C@@H](CCCNC(=N)N)C(=O)O (stereo partly shown) [CP-0229] (HELM PEPTIDE1{[dR].R.P.[Hyp].G.F.C.[dF].L.R}|PEPTIDE2{[dR].R.P.[Hyp].G.F.C.[dF].L.R}|CHEM1{[O=C1CC([*:1])C(=O)N1CCCCCCCCCN1C(=O)CC([*:2])C1=O]}$PEPTIDE1,CHEM1,7:R3-1:R1|PEPTIDE2,CHEM1,7:R3-1:R2$$$V2.0)		0.501 nM						
CC(C)C[C@H](NC(=O)[C@@H](Cc1ccccc1)NC(=O)[C@H](CSC1CC(=O)N(CCCCCCCCCCN2C(=O)CC(SC[C@H](NC(=O)[C@H](Cc3ccccc3)NC(=O)CNC(=O)[C@@H]3C[C@@H](O)CN3C(=O)[C@@H]3CCCN3C(=O)[C@H](CCCNC(=N)N)NC(=O)[C@H](N)CCCNC(=N)N)C(=O)N[C@H](Cc3ccccc3)C(=O)N[C@@H](CC(C)C)C(=O)N[C@@H](CCCNC(=N)N)C(=O)O)C2=O)C1=O)NC(=O)[C@H](Cc1ccccc1)NC(=O)CNC(=O)[C@@H]1C[C@@H](O)CN1C(=O)[C@@H]1CCCN1C(=O)[C@H](CCCNC(=N)N)NC(=O)[C@H](N)CCCNC(=N)N)C(=O)N[C@@H](CCCNC(=N)N)C(=O)O (stereo partly shown) [CP-0230] (HELM PEPTIDE1{[dR].R.P.[Hyp].G.F.C.[dF].L.R}|PEPTIDE2{[dR].R.P.[Hyp].G.F.C.[dF].L.R}|CHEM1{[O=C1CC([*:1])C(=O)N1CCCCCCCCCCN1C(=O)CC([*:2])C1=O]}$PEPTIDE1,CHEM1,7:R3-1:R1|PEPTIDE2,CHEM1,7:R3-1:R2$$$V2.0)		2.51 nM						
N=C(N)NCCC[C@@H](N)C(=O)N[C@@H](CCCNC(=N)N)C(=O)N1CCC[C@H]1C(=O)N1C[C@H](O)C[C@H]1C(=O)NCC(=O)N[C@@H](Cc1ccccc1)C(=O)N[C@@H](CO)C(=O)N1Cc2ccccc2C[C@@H]1C(=O)N1[C@H](C(=O)O)C[C@@H]2CCCC[C@@H]21 [CP-0267] (HELM PEPTIDE1{[dR].R.P.[Hyp].G.F.S.[O=C([C@H]1Cc2ccccc2CN1[*:1])[*:2]].[O=C(O)[C@@H]1C[C@@H]2CCCC[C@@H]2N1[*:1]]}$$$$V2.0)			-	-	+	-	-	+/-
CC(C)C[C@H](NC(=O)[C@@H]1CCCN1C(=O)[C@H](CO)NC(=O)[C@H](Cc1ccccc1)NC(=O)CNC(=O)[C@@H]1CCCN1C(=O)[C@@H]1CCCN1C(=O)[C@H](CCCNC(=N)N)NC(=O)[C@@H](N)CCCCN)C(=O)O [CP-0298, Lys^0Arg^1Pro^2Pro^3Gly^4Phe^5Ser^6Pro^7Leu^8, reference compound]			+	+	+	-	-	-
N=C(N)NCCC[C@@H](N)C(=O)N[C@@H](CCCNC(=N)N)C(=O)N1CCC[C@H]1C(=O)N1C[C@H](O)C[C@H]1C(=O)NCC(=O)N[C@@H](Cc1cccs1)C(=O)N[C@@H](CO)C(=O)N1Cc2ccccc2C[C@@H]1C(=O)N1[C@H](C(=O)O)C[C@@H]2CCCC[C@@H]21 [CP-0345] (H-[dR]RP[Hyp]G[2Thi]S[dTic][Oic]-OH; N-terminus and C-terminus assumed)			-	+	+	-	+/-	+
CC(C)C[C@H](NC(=O)[C@@H](Cc1ccccc1)NC(=O)[C@H](CO)NC(=O)[C@H](Cc1ccccc1)NC(=O)CNC(=O)[C@@H]1C[C@@H](O)CN1C(=O)[C@@H]1CCCN1C(=O)[C@H](CSC1CC(=O)N(CCCCCCN2C(=O)CC(SC[C@H](NC(=O)[C@H](Cc3ccccc3)NC(=O)CNC(=O)[C@@H]3C[C@@H](O)CN3C(=O)[C@@H]3CCCN3C(=O)[C@H](CCCNC(=N)N)NC(=O)[C@H](N)CCCNC(=N)N)C(=O)N[C@H](Cc3ccccc3)C(=O)N[C@@H](CC(C)C)C(=O)N[C@@H](CCCNC(=N)N)C(=O)O)C2=O)C1=O)NC(=O)[C@H](N)CCCNC(=N)N)C(=O)O (stereo partly shown) [CP-0386] (HELM PEPTIDE1{[dR].R.P.[Hyp].G.F.C.[dF].L.R}|PEPTIDE2{[dR].C.P.[Hyp].G.F.S.[dF].L}|CHEM1{[O=C1CC([*:1])C(=O)N1CCCCCCN1C(=O)CC([*:2])C1=O]}$PEPTIDE1,CHEM1,7:R3-1:R1|PEPTIDE2,CHEM1,2:R3-1:R2$$$V2.0; N-terminus and C-terminus assumed)			+	+	+	+	+	+
